# Experimental data published in patent publication US20110098288A1, “SULFONAMIDES AS ZAP-70 INHIBITORS” (priority 2008, published 2011).
# Counter-ions that a name gives are not always drawn.
# How the values were obtained:
# Jurkat cells = test: Calcium release assay (Fluo-4 flow cytometry after anti-CD3 stimulation); format: cell-based; details: Homo sapiens, Jurkat cell line J77, anti-CD3 activation, read-out: IC50 (Calcium ion release in cells)
# Method: Compounds of the present invention were tested in a Calcium release assay as described below.
# The development of fluorescent probes makes it possible to measure the concentration of intracellular free Calcium ions in single living cells. Cells are first loaded with a cell-permeable Ca^2+-sensitive dye, then the test compound is added. Finally, cells are activated through the T cell receptor with an anti-CD3 antibody shortly before data acquisition on the flow cytometer. The release of Ca^2+ is measured as a function of time after cell stimulation. This protocol describes the flow cytometry method using the Fluo-3 and Fluo-4 dyes (Minta et al., 1989, J. Biol. Chem. 264(14):8171-8178) to measure the intracellular Ca^2+ concentration in Jurkat cells (see also June et al., 1997, Measurement of intracellular calcium ions by flow cytometry. In: Current Protocols in Cytometry (1997) Unit 9.8.1-9.8.19, John Wiley & Sons, Inc.).
# In general, cells should be handled in the shortest time possible to assure their stability. Therefore the preparation of all materials in advance is highly recommended as well as using any incubation or centrifugation time to prepare the next steps (e.g. preparing compound dilution or starting the flow cytometer).
# 1) Prepare a work plan indicating the number of samples to be analyzed including controls. 2) Cell harvest: Centrifuge 50 to 100 ml of a Jurkat cell culture for 5 minutes at 1100 rpm. Discard the supernatant, pool the resuspended cell pellets in a single 50 ml Falcon tube, and fill up to 50 ml with PBS—CaCl2 (without FCS). Centrifuge again sample again. 3) Resuspend cell pellet with PBS—CaCl2 (without FCS) to achieve a concentration not lower than 10×10^6 cells/ml. Prepare an adequate dilution to evaluate the cell concentration and count the cells. 4) Separate the volume of cells needed to be loaded (for example […] for 20 samples) in a 50 ml Falcon tube. Fill up with PBS—CaCl2 to 900 μl for 107 cells. 5) Prepare in the dark a 1:1 mix of FLUO-4 (1 mM)+Pluronic F-127 (20%). 5 μl of Fluo-4 are needed per 107 cells. 6) Prepare a 1/10 dilution of this mix with PBS—CaCl2 (in the dark; for example 5 μl Fluo-4+5 μl F-127 completed to 100 μl). 7) Add the dye solution to the cells. […] 8) Incubate the sample for 30 minutes in a cell incubator (37° C., 5% CO2). Mix from time to time. 9) During this time prepare the adequate test compound dilution in PBS—CaCl2 (with 10% FCS). The solution should be 10 times more concentrated than the desired final concentration. Vortex each dilution. Prepare also the antibody dilutions: anti-CD3 (1/200) and GAM (1/25). 10) Label FACS tubes and distribute in the corresponding tube 30 μl of the compound dilution or only buffer for the control tubes. 11) After 30 minutes of incubation wash the cells twice in PBS—CaCl2 (with 10% FCS). During the washing steps make sure that the flow cytometer is already “ON” in order to warm the laser. 12) Resuspend the cell pellet in PBS—CaCl2 (with 10% FCS) at a concentration of 1.5×10^6 cells/ml. 13) Distribute 300 μl of cell suspension into the FACS tubes and mix gently. The compound incubation is starting. Keep samples at room temperature in the dark. 14) Open the settings of the cytometer. It is advised to have a template ready which is used for all measurements. Settings of the machine should also be the same from one experiment to the other which permits to evaluate the reproducibility of the cell preparation. 15) In Setup modus control your cell preparation on the cytometer. Cells should fit in the pre-defined gates. 16) During the compound incubation time, check also that cells are responding to the anti-CD3 activation as expected. Set a timer at 8 sec. Add 6 μl of anti-CD3 dilution (0.2 μg/ml final) and mix gently. Add 1 μl of GAM dilution (0.75 μg/ml final) and mix gently. Incubate the samples in water bath at 37° C. while starting timer. After 8 seconds of incubation, acquire data at medium speed for 200 seconds. […]
# ZAP-70 = molecular target: T1, ZAP-70 (Homo sapiens, UniProt P43403); test: ZAP-70 kinobeads assay; format: binding; details: competition with immobilized aminopyrido-pyrimidine ligand 24 in cell lysate; ZAP-70 detected by dot blot
# T1 construct: endogenous in cells; host or cells: cell lysate
# T1 sequence (P43403 1-619): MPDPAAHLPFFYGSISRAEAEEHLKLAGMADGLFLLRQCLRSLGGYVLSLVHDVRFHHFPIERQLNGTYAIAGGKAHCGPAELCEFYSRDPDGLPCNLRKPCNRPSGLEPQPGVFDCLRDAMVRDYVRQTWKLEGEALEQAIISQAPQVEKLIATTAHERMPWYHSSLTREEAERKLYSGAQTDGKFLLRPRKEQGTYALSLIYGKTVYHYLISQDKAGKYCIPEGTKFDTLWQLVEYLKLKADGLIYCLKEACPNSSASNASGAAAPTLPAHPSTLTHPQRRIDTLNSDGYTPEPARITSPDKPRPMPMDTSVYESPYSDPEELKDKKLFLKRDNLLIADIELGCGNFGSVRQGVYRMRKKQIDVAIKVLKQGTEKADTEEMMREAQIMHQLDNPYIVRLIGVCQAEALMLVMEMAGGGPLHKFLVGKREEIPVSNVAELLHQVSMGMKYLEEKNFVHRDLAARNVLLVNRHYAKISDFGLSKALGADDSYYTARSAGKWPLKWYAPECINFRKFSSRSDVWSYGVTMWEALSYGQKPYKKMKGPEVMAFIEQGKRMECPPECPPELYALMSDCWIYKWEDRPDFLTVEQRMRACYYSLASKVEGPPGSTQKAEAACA
# In short: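 Competition binding format: compounds compete with a bead-immobilized aminopyrido-pyrimidine ligand for ZAP-70 in cell lysate. After bead separation and elution, bound ZAP-70 measured by antibody dot blot with infrared read-out.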
Structure (SMILES),IC50 (Jurkat cells) [nM],IC50 (ZAP-70) [nM]
"COc1cc(Nc2ncc(F)c(Nc3ccccc3NS(=O)(=O)c3ccsc3)n2)cc(OC)c1OC [Example 49, N-(2-(5-fluoro-2-(3,4,5-trimethoxyphenylamino)pyrimidin-4-ylamino)phenyl)thiopehene-3-sulfonamide]",100 to 1000,1000 to 10000
"COc1ccc(Nc2nc(Nc3cc(OC)c(OC)c(OC)c3)ncc2Br)c(NS(C)(=O)=O)c1 [Example 178, N-(2-(5-bromo-2-(3,4,5-trimethoxyphenylamino)pyrimidin-4-ylamino)-5-methoxyphenyl)methanesulfonamide]",100 to 1000,< 100
"COc1cc(Nc2ncc(Cl)c(Nc3ccccc3NS(C)(=O)=O)n2)ccc1OCCN1CCCCC1 [Example 142, N-(2-(5-chloro-2-(3-methoxy-4-(2-(piperidin-1-yl)ethoxy)phenylamino)pyrimidin-4-ylamino)phenyl)methanesulfonamide hydrochloride]",100 to 1000,< 100
"COc1ccc(Nc2ncc(Br)c(Nc3ccccc3NS(C)(=O)=O)n2)cc1 [Example 106, N-(2-(5-bromo-2-(4-methoxyphenylamino)pyrimidin-4-ylamino)phenyl)methanesulfonamide]",100 to 1000,100 to 1000
"Cc1cc(C)cc(Nc2ncc(F)c(Nc3ccccc3NS(C)(=O)=O)n2)c1 [Example 3, N-(2-(2-(3,5-dimethylphenylamino)-5-fluoropyrimidin-4-ylamino)phenyl)methanesulfonamide]",100 to 1000,100 to 1000
"Cc1nc2cc(Nc3ncc(F)c(Nc4ccccc4NS(C)(=O)=O)n3)ccc2s1 [Example 18, N-(2-(5-fluoro-2-(2-methylbenzo[d]thiazol-5-ylamino)pyrimidin-4-ylamino)phenyl)methanesulfonamide]",100 to 1000,1000 to 10000
"CS(=O)(=O)Nc1ccccc1Nc1nc(Nc2ccc(NCCN3CCCC3)cc2)ncc1F [Example 93, N-(2-(5-fluoro-2-(4-(2-pyrrolidin-1-yl)ethylamino)phenylamino)pyrimidin-4-ylamino)phenyl)methanesulfonamide formate]",100 to 1000,100 to 1000
"CC(=O)c1cccc(Nc2ncc(F)c(Nc3ccccc3NS(C)(=O)=O)n2)c1 [Example 14, N-(2-(2-(3-acetylphenylamino)-5-fluoropyrimidin-4-ylamino)phenyl)methanesulfonamide]",100 to 1000,100 to 1000
"CN1CCCC(COc2cccc(Nc3ncc(Cl)c(Nc4ccccc4NS(C)(=O)=O)n3)c2)C1 (stereo not shown) [Example 146, N-(2-(5-chloro-2-(3-((1-methylpiperidin-3-yl)methoxy)phenylamino)pyrimidin-4-ylamino)phenyl)methanesulfonamide]",< 100,< 100
"CCOc1ccc(Nc2nc(Nc3cc(OC)c(OC)c(OC)c3)ncc2F)c(NS(C)(=O)=O)c1 [Example 175, N-(5-ethoxy-2-(5-fluoro-2-(3,4,5-trimethoxyphenylamino)pyrimidin-4-ylamino)phenyl)methanesulfonamide]",< 100,< 100
"COc1ccc(Nc2ncc(Cl)c(Nc3ccccc3NS(C)(=O)=O)n2)cc1 [Example 139, N-(2-(5-chloro-2-(4-methoxyphenylamino)pyrimidin-4-ylamino)phenyl)methanesulfonamide hydrochloride]",< 100,100 to 1000
"COc1cc(Nc2ncc(F)c(Nc3ccc(NS(=O)(=O)c4ccccc4)cc3)n2)cc(OC)c1OC [Example 44, N-(4-(5-fluoro-2-(3,4,5-trimethoxyphenylamino)pyrimidin-4-ylamino)phenyl)benzenesulfonamide]",100 to 1000,–
"COc1cc(Nc2ncc(F)c(Nc3cccc(NS(=O)(=O)c4cccnc4)c3)n2)cc(OC)c1OC [Example 58, N-(3-(5-fluoro-2-(3,4,5-trimethoxyphenylamino)pyrimidin-4-ylamino)phenyl)pyridine-3-sulfonamide]",100 to 1000,–
"Cc1nnnn1-c1ccc(Nc2ncc(F)c(Nc3ccccc3NS(C)(=O)=O)n2)cc1 [Example 199, N-(2-(5-fluoro-2-(4-(5-methyl-1H-tetrazol-1-yl)phenylamino)pyrimidin-4-ylamino)phenyl)methanesulfonamide]",–,100 to 1000
"COc1cc(Nc2ncc(F)c(Nc3cccc(C)c3NS(C)(=O)=O)n2)cc(OCC(C)C)c1OC [Example 119, N-(2-(5-fluoro-2-(3-isobutoxy-4,5-dimethoxyphenylamino)pyrimidin-4-ylamino)-6-methylphenyl)methanesulfonamide]",–,100 to 1000

# More lines, now with the values ahead:
IC50 (Jurkat cells) [nM],IC50 (ZAP-70) [nM],Structure (SMILES)
< 100,< 100,"CN1CCN(CCCOc2ccc(Nc3ncc(Cl)c(Nc4ccccc4NS(C)(=O)=O)n3)cc2)CC1 [Example 136, N-(2-(5-chloro-2-(4-(3-(4-methylpiperazin-1-yl)propoxy)phenylamino)pyrimidin-4-ylamino)phenyl)methanesulfonamide]"
< 100,< 100,"CN1CCN(C)C(COc2cccc(Nc3ncc(Cl)c(Nc4ccccc4NS(C)(=O)=O)n3)c2)C1 (stereo not shown) [Example 147, N-(2-(5-chloro-2-(3-((1,4-dimethylpiperazin-2-yl)methoxy)phenylamino)pyrimidin-4-ylamino)phenyl)methanesulfonamide]"
< 100,100 to 1000,"CS(=O)(=O)Nc1ccccc1Nc1nc(Nc2cccc(OCCO)c2)ncc1F [Example 78, N-(2-(5-fluoro-2-(3-(2-hydroxyethoxy)phenylamino)pyrimidin-4-ylamino)phenyl)methanesulfonamide]"
< 100,100 to 1000,CS(=O)(=O)Nc1ccccc1Nc1nc(Nc2ccc(OCCN3CCCCC3)cc2)ncc1F [Example 87]
< 100,< 100,CN1CCN(CCCOc2cccc(Nc3ncc(Cl)c(Nc4ccccc4NS(C)(=O)=O)n3)c2)CC1 [Example 135]
< 100,100 to 1000,"CS(=O)(=O)Nc1ccccc1Nc1nc(Nc2ccc(NC(=O)CN3CCCC3)cc2)ncc1Cl [Example 132, N-(4-(5-chloro-4-(2-(methylsulfonamido)phenylamino)pyrimidin-2-ylamino)phenyl)-2-(pyrrolidin-1-yl)acetamide]"
< 100,< 100,"CS(=O)(=O)Nc1ccccc1Nc1nc(Nc2cccc(OCCO)c2)ncc1Cl [Example 123, N-(2-(5-chloro-2-(3-(2-hydroxyethoxy)phenylamino)pyrimidin-4-ylamino)phenyl)methanesulfonamide]"
